Assay results from US9980904B2, “Dry powder formulation” (Teva Branded Pharmaceutical Products R&D, Inc., priority 2014, dated 2018).

Key:
Type in all cases: physicochemical
[1] = Study 1 equilibration study: aerodynamic particle size distribution analysis (FPF and FPD) after 6 week equilibration
Protocol: (§1) Two batches of fluticasone/salmeterol housed within a Spiromax® device were prepared. […] Each batch was divided into two and equilibrated for six weeks under the conditions specified by each protocol. Protocol 1: 30° C./65% RH (unwrapped) Protocol 2: 40° C. […] Two batches of fluticasone/salmeterol housed within a Spiromax® device were prepared. Combination batches of fluticasone propionate and salmeterol xinafoate were selected at two different strengths, as in study 1. Each batch was divided into two and equilibrated for six weeks under the conditions specified by each protocol. Protocol 1: 30° C./65% RH (unwrapped) Protocol 3: 40° C.

[2] = Study 2 equilibration study: aerodynamic particle size distribution analysis (FPF and FPD) during 6 week equilibration
Protocol: as §1

[3] = Study 3 eight week in-use stability study: aerodynamic particle size distribution (FPF and FPD); conditions: eight week in-use at 30° C./65% RH (unwrapped) after equilibration by protocol 2
Protocol: (§2) Following inhaler equilibration according to protocol 2 (six weeks at 40° C./75% RH wrapped in foil with desiccant), eight-week stability tests of fluticasone propionate and salmeterol xinafoate (25 μg/25 μg and 100 μg/25 μg) were conducted. The in-use stability testing was conducted at 30° C./65% RH (unwrapped) as per discussion with the FDA. […] Following inhaler equilibration according to protocol 3 (six weeks at 40° C. wrapped in foil with desiccant), six-month stability tests of fluticasone propionate and salmeterol xinafoate (25 μg/25 μg and 100 μg/25 μg) were conducted. The stability of the formulations was assessed following storage under two different condition sets.

[4] = Study 4 six month stability study: aerodynamic particle size distribution (FPF and FPD)
Protocol: as §2

[5] = Study 1, batch 25/25 μg Fp/Sx in Spiromax, 30° C./65% RH (unwrapped)
[6] = Study 1, batch 25/25 μg, 40° C. (wrapped in foil with desiccant)
[7] = Study 1, batch 100/25 μg, 30° C./65% RH (unwrapped)
[8] = Study 1, batch 100/25 μg, 40° C. (wrapped in foil with desiccant)
[9] = Study 2, batch 25/25 μg, 30° C./65% RH (unwrapped)
[10] = Study 2, batch 25/25 μg, 40° C. (wrapped in foil with desiccant)
[11] = Study 2, batch 100/25 μg, 30° C./65% RH (unwrapped)
[12] = Study 2, batch 100/25 μg, 40° C. (wrapped in foil with desiccant)
[13] = Study 4, batch 25/25, six month storage at 25° C./60% RH (wrapped) after equilibration by protocol 3
[14] = Study 4, batch 25/25, six month storage at 40° C. (wrapped) after equilibration by protocol 3
[15] = Study 4, batch 100/25, six month storage at 25° C./60% RH (wrapped) after equilibration by protocol 3
[16] = Study 4, batch 100/25, six month storage at 40° C. (wrapped) after equilibration by protocol 3

Row | SMILES | Aerodynamic particle size distribution (% change from base) FPD [1, 5] [%] | Aerodynamic particle size distribution (% change from base) FPF [1, 5] [%] | Aerodynamic particle size distribution (% change from base) FPD [1, 6] [%] | Aerodynamic particle size distribution (% change from base) FPF [1, 6] [%] | Aerodynamic particle size distribution (% change from base) FPD [1, 7] [%] | Aerodynamic particle size distribution (% change from base) FPF [1, 7] [%] | Aerodynamic particle size distribution (% change from base) FPD [1, 8] [%] | Aerodynamic particle size distribution (% change from base) FPF [1, 8] [%] | Aerodynamic particle size distribution (% change from base) FPD [2, 9] [%] | Aerodynamic particle size distribution (% change from base) FPF [2, 9] [%] | Aerodynamic particle size distribution (% change from base) FPD [2, 10] [%] | Aerodynamic particle size distribution (% change from base) FPF [2, 10] [%] | Aerodynamic particle size distribution (% change from base) FPD [2, 11] [%] | Aerodynamic particle size distribution (% change from base) FPF [2, 11] [%] | Aerodynamic particle size distribution (% change from base) FPD [2, 12] [%] | Aerodynamic particle size distribution (% change from base) FPF [2, 12] [%] | Aerodynamic particle size distribution (% change from base) FPD ([3]; Study 3, batch 25/25 μg) [%] | Aerodynamic particle size distribution (% change from base) FPF ([3]; Study 3, batch 25/25 μg) [%] | Aerodynamic particle size distribution (% change from base) FPD ([3]; Study 3, batch 100/25 μg) [%] | Aerodynamic particle size distribution (% change from base) FPF ([3]; Study 3, batch 100/25 μg) [%] | other results
1 | OCc1cc(C(O)CNCCCCCCOCCCCc2ccccc2)ccc1O (centres unmarked) [Sx, salmeterol xinafoate] | −20 | −19 | −2 | −2 | −9 | −10 | 0 | 0 | −20 | −18 | −2 | −2 | −9 | −10 | 0 | 0 | −17 | −14 | −4 | −3 | Aerodynamic particle size distribution (% change from base) FPD [4, 13]: −5%; Aerodynamic particle size distribution (% change from base) FPF [4, 13]: 0%; Aerodynamic particle size distribution (% change from base) FPD [4, 14]: −9%; Aerodynamic particle size distribution (% change from base) FPF [4, 14]: −4%; Aerodynamic particle size distribution (% change from base) FPD [4, 15]: −3%; Aerodynamic particle size distribution (% change from base) FPF [4, 15]: −1%; Aerodynamic particle size distribution (% change from base) FPD [4, 16]: −13%; Aerodynamic particle size distribution (% change from base) FPF [4, 16]: −9%
2 | CCC(=O)O[C@]1(C(=O)SCF)[C@H](C)C[C@H]2[C@@H]3C[C@H](F)C4=CC(=O)C=C[C@]4(C)[C@@]3(F)[C@@H](O)C[C@@]21C [Fp, fluticasone propionate] | −16 | −19 | −13 | −12 | −13 | −12 | −17 | −14 | −19 | −16 | −13 | −12 | −12 | −12 | −16 | −14 | −10 | −9 | 0 | 0 | Aerodynamic particle size distribution (% change from base) FPD [4, 13]: −4%; Aerodynamic particle size distribution (% change from base) FPF [4, 13]: 0%; Aerodynamic particle size distribution (% change from base) FPD [4, 14]: −9%; Aerodynamic particle size distribution (% change from base) FPF [4, 14]: −6%; Aerodynamic particle size distribution (% change from base) FPD [4, 15]: 0%; Aerodynamic particle size distribution (% change from base) FPF [4, 15]: 0%; Aerodynamic particle size distribution (% change from base) FPD [4, 16]: −8%; Aerodynamic particle size distribution (% change from base) FPF [4, 16]: −6%
